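Assay format: 96-well plates, 48-hour exposure. Abbreviation: GI50, concentration required for 50% inhibition of growth.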 Calls of active or inactive are those of the source. Cut-off read from the data, not from the text of the source: active = GI50 up to about 1.1 µM and inactive = higher.
Experiments:
Assay in all cases: inhibition of tumour cell growth, NCI panel, 48 h
[1] = system: UACC-257
[2] = system: OVCAR-8
[3] = system: OVCAR-4
[4] = system: NCI-H522
[5] = system: TK-10
[6] = system: A498
[7] = system: SF-268
[8] = system: HCT-116
[9] = system: HT-29
[10] = system: SNB-78
[11] = system: XF498
[12] = system: SW-620
[13] = system: SK-MEL-5
[14] = system: SK-MEL-28
[15] = system: EKVX
[16] = system: SNB-75
[17] = system: SR
[18] = system: KM-20L2
[19] = system: HL-60
[20] = system: SK-MEL-2
[21] = system: SF-539
[22] = system: HCC 2998
[23] = system: UACC-62
[24] = system: ACHN
[25] = system: RXF 393
[26] = system: DMS-114
[27] = system: UO-31
[28] = system: NCI-H23
[29] = system: LXFL 529
[30] = system: RXF 631
[31] = system: HOP-18
[32] = system: NCI-H460
[33] = system: A549
[34] = system: Malme-3M
[35] = system: SF-295
[36] = system: NCI-H226
[37] = system: HOP-62
[38] = system: COLO 205
[39] = system: DLD-1
[40] = system: DMS-273
[41] = system: OVCAR-5
[42] = system: IGROV-1
[43] = system: M19-MEL
[44] = system: HCT-15
[45] = system: SK-OV-3
[46] = system: KM12
[47] = system: OVCAR-3
[48] = system: 786-0
[49] = system: MOLT-4
[50] = system: K562
[51] = system: LOX IMVI
[52] = system: U-251
[53] = system: CCRF-CEM
[54] = system: M14
[55] = system: SN12C
[56] = system: CAKI-1
[57] = system: SNB-19

CC1=C(C(=O)Nc2ccc(C)cc2)C(c2cccc([N+](=O)[O-])c2)C(C(=O)Nc2ccc(C)cc2)=C(C)N1
GI50 [1]: 21.2 µM (inactive) | GI50 [2]: 40 µM (inactive) | GI50 [3]: 12.2 µM (inactive) | GI50 [4]: 27.4 µM (inactive) | GI50 [5]: 31.6 µM (inactive) | GI50 [6]: 16.4 µM (inactive) | GI50 [7]: 16.1 µM (inactive) | GI50 [8]: 35.6 µM (inactive) | GI50 [9]: 17.2 µM (inactive) | GI50 [10]: 27.4 µM (inactive) | GI50 [11]: 17.8 µM (inactive) | GI50 [12]: 35.2 µM (inactive) | GI50 [13]: 20.2 µM (inactive) | GI50 [14]: 28.8 µM (inactive) | GI50 [15]: 17.1 µM (inactive) | GI50 [16]: 16.7 µM (inactive) | GI50 [17]: 21.2 µM (inactive) | GI50 [18]: 19.4 µM (inactive) | GI50 [19]: 16.1 µM (inactive) | GI50 [20]: 20.8 µM (inactive) | GI50 [21]: 19 µM (inactive) | GI50 [22]: 30.6 µM (inactive) | GI50 [23]: 13.3 µM (inactive) | GI50 [24]: 18.8 µM (inactive) | GI50 [25]: 22.8 µM (inactive) | GI50 [26]: 22.5 µM (inactive) | GI50 [27]: 22 µM (inactive) | GI50 [28]: 25.2 µM (inactive) | GI50 [29]: 27.7 µM (inactive) | GI50 [30]: 17.2 µM (inactive) | GI50 [31]: 14.1 µM (inactive) | GI50 [32]: 19.7 µM (inactive) | GI50 [33]: 26.2 µM (inactive) | GI50 [34]: 28.2 µM (inactive) | GI50 [35]: 28.1 µM (inactive) | GI50 [36]: 69.5 µM (inactive) | GI50 [37]: 29.5 µM (inactive) | GI50 [38]: 14.1 µM (inactive) | GI50 [39]: 31.6 µM (inactive) | GI50 [40]: 28.6 µM (inactive) | GI50 [41]: 53.2 µM (inactive) | GI50 [42]: 20.9 µM (inactive) | GI50 [43]: 20.8 µM (inactive) | GI50 [44]: 26.2 µM | GI50 [45]: 55.2 µM (inactive) | GI50 [46]: 15.6 µM (inactive) | GI50 [47]: 20 µM (inactive) | GI50 [48]: 26.2 µM (inactive) | GI50 [49]: 5.55 µM (inactive) | GI50 [50]: 16.9 µM (inactive) | GI50 [51]: 16.2 µM (inactive) | GI50 [52]: 20.7 µM (inactive) | GI50 [53]: 7.89 µM (inactive) | GI50 [54]: 16.9 µM (inactive) | GI50 [55]: 20.9 µM (inactive) | GI50 [56]: 27.9 µM (inactive) | GI50 [57]: 28.1 µM (inactive)

From ChEMBL document CHEMBL1201862, “PubChem BioAssay data set” (2004)
